Assays:
Orexin receptor type 2 = target: T1, Orexin receptor type 2 (Homo sapiens, UniProt O43614); assay: Agonist activity at OX2R (unknown origin) expressed in CHO cells by cell-based calcium assay; format: functional
T1 sequence (O43614 whole entry): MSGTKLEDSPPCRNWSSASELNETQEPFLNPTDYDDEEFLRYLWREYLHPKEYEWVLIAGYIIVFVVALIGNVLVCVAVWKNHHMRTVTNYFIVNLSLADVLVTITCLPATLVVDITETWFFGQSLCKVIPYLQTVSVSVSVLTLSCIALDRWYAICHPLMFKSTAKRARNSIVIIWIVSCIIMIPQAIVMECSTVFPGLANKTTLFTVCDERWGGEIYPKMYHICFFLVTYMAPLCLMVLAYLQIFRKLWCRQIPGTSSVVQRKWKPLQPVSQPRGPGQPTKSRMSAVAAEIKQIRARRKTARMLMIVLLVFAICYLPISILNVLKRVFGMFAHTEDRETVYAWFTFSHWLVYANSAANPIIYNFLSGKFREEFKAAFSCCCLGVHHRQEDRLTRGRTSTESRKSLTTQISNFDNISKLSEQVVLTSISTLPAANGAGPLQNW

[1] = target: T2, Orexin/Hypocretin receptor type 1 (Homo sapiens) (UniProt O43613); assay: Agonist activity at OX1R (unknown origin) expressed in CHO cells at 10 uM by cell-based calcium assay relative to Orexin A; format: functional
T2 sequence (whole entry): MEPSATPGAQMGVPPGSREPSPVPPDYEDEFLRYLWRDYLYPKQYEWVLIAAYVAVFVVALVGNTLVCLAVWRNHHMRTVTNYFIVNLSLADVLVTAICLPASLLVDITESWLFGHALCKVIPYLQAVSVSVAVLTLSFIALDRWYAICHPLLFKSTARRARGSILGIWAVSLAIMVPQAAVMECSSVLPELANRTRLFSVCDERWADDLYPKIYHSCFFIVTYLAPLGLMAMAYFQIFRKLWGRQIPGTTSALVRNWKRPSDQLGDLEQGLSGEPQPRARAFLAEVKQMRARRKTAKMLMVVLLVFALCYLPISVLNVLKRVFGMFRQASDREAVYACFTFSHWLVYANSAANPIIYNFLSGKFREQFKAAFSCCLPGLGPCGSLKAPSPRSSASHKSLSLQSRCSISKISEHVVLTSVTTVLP

[2] = target: T3, Orexin receptor type 2 (Homo sapiens) (UniProt O43614); assay: Agonist activity at OX2R (unknown origin) expressed in CHO cells at 10 uM by cell-based calcium assay relative to orexin A; format: functional
T3 sequence (whole entry): T1 sequence (O43614 whole entry)

[3] = target: T4, Orexin/Hypocretin receptor type 1 (Homo sapiens, UniProt O43613); assay: Agonist activity at OX1R (unknown origin) expressed in CHO cells by cell-based calcium assay; format: functional
T4 sequence (O43613 whole entry): T2 sequence (whole entry)

[4] = target: T4, Orexin/Hypocretin receptor type 1; assay: Antagonist activity at human OX1R expressed in CHO-K1 cells assessed as inhibition of orexin-A-induced increase in calcium mobilization preincubated for 15 mins followed orexin-A stimulation by Fura-2-AM dye based fluorescence assay
Homo sapiens = species on record: Homo sapiens; assay: Selectivity ratio of EC50 for agonist activity at human OX1R expressed in CHO-K1 cells to EC50 for agonist activity at human OX2R expressed in CHO-K1 cells; format: cell-based

| EC50 (Orexin receptor type 2) [µM] | Efficacy [1] [%] | Efficacy [2] [%] | EC50 [3] [µM] | Ki [4] [µM] | SMILES | Ratio EC50 (Homo sapiens) |
| --- | --- | --- | --- | --- | --- | --- |
| > 10 | < 5 | < 5 | > 10 | – | COc1ccc(-c2cccc(C(=O)N(C)C)c2)cc1S(=O)(=O)Nc1ccc2ccc(N(C)C(=O)c3ccccc3)cc2c1 | – |
| – | – | – | – | 0.00217 | COc1ccc(C(=O)Nc2cccc([C@]3(C)O[C@H]4CO[C@@H]5N4[C@H]3O[C@@]5(C)c3cccc(NC(=O)c4ccc(OC)cc4)c3)c2)cc1 | – |
| > 10 | < 5 | < 5 | > 10 | – | COc1ccc(-c2cccc(C(=O)N(C)C)c2)cc1S(=O)(=O)Nc1ccc2ccc(NC(=O)c3ccccc3)cc2c1 | – |
| – | – | – | – | 0.00523 | COc1ccc(C(=O)Nc2cccc([C@]3(C)O[C@@H]4CO[C@H]5N4[C@@H]3O[C@@]5(C)c3cccc(NC(=O)c4ccc(OC)cc4)c3)c2)cc1 | – |
| – | – | – | – | – | COC(=O)N1CCC[C@H](NS(C)(=O)=O)[C@@H]1CO[C@H]1CC[C@@H](c2ccccc2)CC1 | > 5000 |
| > 10 | – | – | > 10 | – | COc1ccccc1C(=O)N(C)c1cccc2ccc(NS(=O)(=O)c3cc(-c4cccc(C(=O)N(C)C)c4)ccc3OC)cc12 | – |

Reference: ChEMBL document CHEMBL5131434, “Design and synthesis of novel orexin 2 receptor agonists based on naphthalene skeleton” (Bioorg Med Chem Lett, 2022)
